# Reference: patent US11602496B2, “Use of gingerone or derivatives thereof for reducing or delaying the signs of skin ageing” (L'OREAL, priority 2011, dated 2023)
# Marks after values point to notes of the source that are not given here.
# System: filaggrin expression in normal human keratinocytes (NHEKs)
# Test: Filaggrin expression in normal human keratinocytes in culture (in situ immunolabelling, fluorescence relative to number of nuclei)
# Format: cell-based
# Settings: for filaggrin expression, % relative to the control / change in expression of filaggrin by the keratinocytes relative to the control: NHEKs; for filaggrin expression, % relative to the control: 144 hours incubation, n=3, control complete SFM medium = 100; for change in expression of filaggrin by the keratinocytes relative to the control: 144 hours
# Experimental: The in vitro effect of gingerone (compound 1, the chemical formula of which is given above) on keratinocyte differentiation is studied. The expression and the location of the marker of filaggrin differentiation are especially studied in keratinocytes in culture which thus makes it possible to evaluate the capacity of this compound to increase the differentiation of these cells. Normal human keratinocytes (NHEKs) were cultured at 37° C. and 5% CO2 for 24 h in a complete SFM medium until moderate confluence was obtained. A complete SFM medium is an SFM culture medium supplemented with pituitary extract (25 μg/ml), EGF (0.25 ng/ml) and gentamicin (25 μg/ml). […] The keratinocytes were then incubated for 144 hours. The treatments were carried out in triplicate (n=3). At the end of the incubation, the culture medium was removed and the cells were […], fixed, permeabilized then labelled with the primary antibody targeted against the filaggrin protein of interest (in situ immunolabelling). […] At the same time, the nuclei of the cells were stained with Hoechst 33258 (bisbenzimide). Image acquisition was carried out using an INCell AnalyzerTM1000 machine. The labels were quantified by measuring the fluorescence intensity of the proteins relative to the number of nuclei identified by the Hoechst product.
compound,measurement,setting,value
"[Ca+2].[Cl-].[Cl-] [CaCl2, calcium chloride, reference compound]","filaggrin expression, % relative to the control",1.5 mM,158** %
same,change in expression of filaggrin by the keratinocytes relative to the control,calcium chloride treatment (1.5 mM in Table 1),+58%
"CC1=C(/C=C/C(C)=C/C=C/C(C)=C/C(=O)O)C(C)(C)CCC1 [Retinoic acid, retinoic acid, reference compound]","filaggrin expression, % relative to the control",10^−7 M,3** %
same,change in expression of filaggrin by the keratinocytes relative to the control,retinoic acid treatment (10^−7 M in Table 1),−97%
COc1cc(CCC(C)=O)ccc1O [Gingerone],change in expression of filaggrin by the keratinocytes relative to the control,2 μg/ml,+33%
same,"filaggrin expression, % relative to the control",2 μg/ml,133* %
same,change in expression of filaggrin by the keratinocytes relative to the control,20 μg/ml,+51%
same,"filaggrin expression, % relative to the control",20 μg/ml,151* %
same,effect on expression of the filaggrin protein (in words),normal human epidermal keratinocytes,significantly and dose-dependently increases the expression of the filaggrin protein
